From patent publication US20180244699A1, “1-HYDROXY-3H-2,1-BENZOXABOROLE DERIVATIVES AND THEIR USE AS MICROBIOCIDES” (Syngenta Participations AG, priority 2015, published 2018)

Key:
[1] = test system: Blumeria graminis f. sp. tritici (Erysiphe graminis f. sp. tritici); test: Blumeria graminis f. sp. tritici / wheat / leaf disc preventative (powdery mildew on wheat); format: in vivo; conditions: 200 ppm, wheat leaf segments, inoculated 1 day after application, compared to untreated control
Description: 4. Blumeria Graminis f. Sp. Tritici (Erysiphe graminis f. Sp. Tritici)/Wheat/Leaf Disc Preventative (Powdery Mildew on Wheat)
Wheat leaf segments cv. Kanzler are placed on agar in a multiwell plate (24-well format) and sprayed with the formulated test compound diluted in water. The leaf disks are inoculated by shaking powdery mildew infected plants above the test plates 1 day after application. The inoculated leaf disks are incubated at 20° C. and 60% rh under a light regime of 24 h darkness followed by 12 h light/12 h darkness in a climate chamber and the activity of a compound is assessed as percent disease control compared to untreated when an appropriate level of disease damage appears on untreated check leaf segments (6-8 days after application).

[2] = test system: Glomerella lagenarium (Colletotrichum lagenarium); test: Glomerella lagenarium (Colletotrichum lagenarium) / liquid culture (anthracnose); format: cell-based; conditions: Colletotrichum orbiculare, growth inhibition photometrically 3-4 days after application, compared to untreated control
In short: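 Conidia from cryogenic storage suspended in potato dextrose broth and added to test compound in DMSO. Incubation at 24° C; growth inhibition read photometrically 3-4 days after application.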

[3] = test system: Monographella nivalis (Microdochium nivale); test: Monographella nivalis (Microdochium nivale) / liquid culture (foot rot cereals); format: cell-based; conditions: growth inhibition photometrically 4-5 days after application, compared to untreated control
In short: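 Conidia from cryogenic storage were mixed into potato dextrose broth and added to wells holding test compound in DMSO. Incubation was at 24° C, with growth inhibition measured photometrically 4-5 days after application.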

[4] = test system: Mycosphaerella graminicola (Septoria tritici); test: Mycosphaerella graminicola (Septoria tritici) / liquid culture (Septoria blotch); format: cell-based; conditions: Zymoseptoria tritici, growth inhibition photometrically 4-5 days after application, compared to untreated control
Pythium ultimum = Pythium ultimum / liquid culture (seedling damping off); format: cell-based; conditions: Globisporangium ultimum, growth inhibition photometrically 2-3 days after application, compared to untreated control
In short: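 Fungal mycelia fragments and oospores from fresh liquid culture mixed into potato dextrose broth and added to DMSO solutions of test compound. Incubated at 24° C.; growth inhibition read photometrically 2-3 days after application.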

Pyrenophora teres = Pyrenophora teres / barley / leaf disc preventative (net blotch); format: in vivo; conditions: 200 ppm, barley leaf segments, inoculated 2 days after application, compared to untreated control
Description: 14. Pyrenophora teres/Barley/Leaf Disc Preventative (Net Blotch) Barley leaf segments cv. Hasso are placed on agar in a multiwell plate (24-well format) and sprayed with the formulated test compound diluted in water. The leaf segments are inoculated with a spore suspension of the fungus 2 days after application. The inoculated leaf segments are incubated at 20° C. and 65% rh under a light regime of 12 h light/12 h darkness in a climate cabinet and the activity of a compound is assessed as disease control compared to untreated when an appropriate level of disease damage appears in untreated check leaf segments (5-7 days after application).

| Compound | control of Blumeria graminis f. sp. tritici [1] | inhibition of growth at 20 ppm [2] | inhibition of growth at 20 ppm [3] | inhibition of growth at 20 ppm [4] | inhibition of growth at 20 ppm (Pythium ultimum) | control of Pyrenophora teres (Pyrenophora teres) |
| --- | --- | --- | --- | --- | --- | --- |
| COc1c(C(=O)NC(C)c2ncc(F)cc2F)ccc2c1B(O)OC2 (stereo not drawn) [Compound 20, N-[1-(3,5-difluoro-2-pyridyl)ethyl]-1-hydroxy-7-methoxy-3H-2,1-benzoxaborole-6-carboxamide] | at least 80% | – | – | – | – | – |
| CCc1ccc(NC(=O)c2ccc3c(c2OC)B(O)OC3)cc1 [Compound 29, N-(4-ethylphenyl)-1-hydroxy-7-methoxy-3H-2,1-benzoxaborole-6-carboxamide] | – | ≥ 80% | ≥ 80% | ≥ 80% | ≥ 80% | at least 80% |
